Laboratory results as given in PubChem BioAssay AID2305 (GlaxoSmithKline (GSK), 2010).
pIC50: −log10 of the molar value.

Each compound was assayed on P. falciparum 3D7 growth, pLDH absorbance (assay: P. falciparum 3D7 growth inhibition, dose response, strain 3D7 (AID 2305)).

SMILES	pIC50
Cc1noc(C)c1-c1cccc(CNCc2cccc(-c3ccc(-c4nc5ccc(C(F)(F)F)cc5[nH]4)s3)c2)c1	6.77
COc1ccc(N(c2nc(-c3cc(Cl)ccc3Cl)cs2)C2CCNC2)cc1 (stereo not given)	6.06
CSc1ccc2ccccc2c1CNCCCCCCNCc1c(SC)ccc2ccccc12	6.10
O=C(Nc1ccc(Cl)cc1)c1ccc(CN2CCCN(Cc3cccc(Cl)c3)CC2)cc1	6.08
Cc1[nH]c(C)c(-c2ccc(OCc3cc(C(F)(F)F)cc(C(F)(F)F)c3)nc2)c(=O)c1Br	6.82
COc1ccc(NC(=O)c2cc(NC(=O)C3(N)CC3)c(=O)n(Cc3ccc(C(N)=O)cc3)c2)cc1	6.10
CC(=O)Nc1ccc(C(=O)Nc2cccc(-c3ccc(-c4nc5ccccc5[nH]4)cc3)c2)cn1	6.68
CNC(=O)Cc1ccc(C(=O)Nc2cccc(-c3csc(-c4nc5ccccc5[nH]4)c3)c2)cc1	6.57
O=C(Nc1cccc(CN2CCN(Cc3ccc(O)cc3)CC2)c1)c1cc2ccccc2s1	6.17
COc1ccc(-c2ccccc2OCCCNc2nc(NCCc3ccc(O)cc3)nc(N3CCNCC3)n2)cc1	6.10
CCCCOc1c(CCC)cc(Cc2cnc(N)nc2N)cc1CCC	6.20
COc1ccc(Nc2nccc(N3CCC(NS(=O)(=O)c4ccc(NC(C)=O)cc4)C3)n2)cc1 (stereo not given)	6.10
Cc1c(C)n(C2CCCCC2)c2ncnc(OC3CCN(CC(=O)N4CCCC4)CC3)c12	5.84
CC(Oc1ccc(C(=O)c2ccc(F)cc2)cc1)C(=O)N1CCc2ccccc21 (stereo not given)	6.39
Cc1ccc(C2(C)CN(CCCOc3cccc(-c4ccc(C(=O)NC(C)C)cc4)c3)CCO2)cc1 (stereo not given)	6.02
Cc1cc(NN=Cc2cccc([N+](=O)[O-])c2)c2ccc(F)cc2n1	6.16
O=S(=O)(NCCN1CCCC1)c1ccc(-c2ccc(CNCc3ccsc3)cc2)cc1F	6.09
CNS(=O)(=O)Cc1ccc(Nc2nccc(Nc3cccc4c3cnn4C(=O)Nc3ccccc3)n2)cc1	6.02
COc1cccc(-c2nc3c(N4CCN(c5ccncc5)CC4)cccc3n2CC2CCCCCN2)n1 (stereo not given)	5.97
NC(=O)CNC(=O)CCCN=C(N)N	6.77
Cc1cc(-c2ccc(Cl)cc2)c2c(N)c(C(=O)Nc3ccc(F)cc3)sc2n1	6.09
O=C(C=Cc1ccc([N+](=O)[O-])cc1)N1CCC(CCN2CCC(c3c[nH]c4ccccc34)CC2)CC1	6.13
CC(=O)Oc1c(C2CCN(CCCCNC(=O)c3ccc(-c4ccc(C#N)cc4)cc3)CC2)ccc2c1CCCC2	5.95
COc1ccccc1CCNc1nc(C)cc(N[C@@H](Cc2ccccc2)C(=O)NCc2cccc(F)c2)n1	6.06

SMILES	pIC50
O=C(c1ccc(-c2ccc(-c3nc4ccc(C(F)(F)F)cc4[nH]3)s2)cc1)N1CCN(CCc2ccccc2)CC1	6.23
O=c1cc(NCCCNCc2cc(Br)ccc2F)[nH]c2ccccc12	6.07
Cc1cccc2[nH]c(-c3cccc(-c4ccc(CNCc5cnn(-c6ccccc6)n5)cc4)c3)nc12	6.04
COc1ccc(CNC2Cc3ccccc3C2)cc1-c1ccc(S(=O)(=O)NCCN2CCCC2)s1	6.72
c1cc(-c2ccc(CNCCCn3ccnc3)cc2)cc(-c2nc3ccccc3[nH]2)c1	6.96
COc1ccc2nccc([C@@H](O)CN3CCC(NC(=O)/C=C/c4ccc(F)c5ccccc45)CC3)c2c1	6.74
CCOC(=O)c1ccc(NC(=O)Nc2cccc(-c3ccc(-c4nc5c(C)cccc5[nH]4)s3)c2)cc1	6.85
CN1CC[C@@H](Oc2cc(Nc3nc(-c4ccc(C#N)cc4)cs3)ccc2Cl)C1	6.09
COCC(C)n1c(C)cc(C(=O)CSc2nnc(Nc3ccccc3)s2)c1C (stereo not given)	6.13
COc1ccc(C(=O)CCC(=O)N(Cc2ccc(-c3ccc(CNCCc4ccc(S(C)(=O)=O)cc4)cn3)cc2)C2CCN(Cc3ccccc3)CC2)cc1F	6.36
CCOC(=O)c1[nH]c(-c2cc(Cl)nc(Cl)c2)nc1NC(=S)NCCCN1CCOCC1	6.03
O=C(/C=C/c1ccc(Cl)c(Cl)c1)NC1CCN(CCCNC(=O)c2cccc(Cl)c2)CC1	6.18
CN(CCC(CCN1CCC(c2c[nH]c3ccccc23)CC1)c1ccccc1)C(=O)Nc1ccc(Cl)c(Cl)c1 (stereo not given)	5.92
O=C(Nc1ccc(Cn2ncc(N3CCCNCC3)c(Cl)c2=O)cc1)Nc1cccc(SC(F)(F)F)c1	6.17
Cc1cc(-c2nc3ccc(C(=N)N)cc3[nH]2)c(C)cc1-c1nc2ccc(C(=N)N)cc2[nH]1	6.40
CN1CCN(CC(=O)Nc2ccc(-c3cccc(-c4nc5ccc(C(F)(F)F)cc5[nH]4)c3)cc2)CC1	6.40
Fc1ccc2nc(-c3cccc(-c4cccc(CN5CCN(c6cnccn6)CC5)c4)c3)[nH]c2c1	5.97
CCNc1cc(C(=O)N[C@@H](Cc2ccccc2)[C@H](O)CNCc2ccc3c(c2)OCCO3)cc(N2CCCCS2(=O)=O)c1	5.87
O=S(=O)(NCCN1CCCC1)c1ccc(-c2cccc(CNCc3ccc(F)cc3)c2)cc1	6.14
CC1CCc2c(C(=O)N3CCc4ccccc4C3)csc2C1 (stereo not given)	6.11
Cc1ccc(C(=O)Nc2cccc(CN3CCCN(Cc4ccc(O)cc4)CC3)c2)cc1	5.96
CC1CN(Cc2ccc(-c3ccc(-c4nc5ccc(F)cc5[nH]4)s3)cc2)CC(C)O1 (stereo not given)	6.06
Cc1c(CNCCCNc2cc(=O)c3ccccc3[nH]2)sc(/C=N/O)c1Br	5.97
CCCOc1ccc2ccccc2c1CNCCCCCCNCc1c(OCCC)ccc2ccccc12	6.10

SMILES	pIC50
CC(C)CNCc1cccc(-c2ccccc2CNC2CCN(Cc3ccccc3)CC2)c1	6.24
CCc1cn2c3c(cc(C(=O)N[C@@H](Cc4ccccc4)[C@H](O)CNCc4cccc(C)c4)cc13)N(C)S(=O)(=O)CC2	6.60
Cc1cccc(C(=O)Nc2ccc(N3CCCN(Cc4cccc(O)c4)CC3)cc2)c1	5.85
CC(C)C[C@H](NC(=O)[C@H](Cc1ccccc1)NC(=O)CCN1C(=O)COc2ccc(C(=O)O)cc21)C(=O)NC(CC1CCCCC1)C(O)CC(=O)NCCCn1ccnc1 (stereo not given in full)	6.01
CCCC(C)Nc1nc(C)cc(N[C@@H](Cc2ccccc2)C(=O)NCc2cccc(F)c2)n1 (stereo not given in full)	6.06
CCOCc1cnc(C)nc1NCC(=O)c1c(C)[nH]c2cc(C)ccc12	5.92
Cc1cc(OCCCN2CCC(NS(=O)(=O)c3cccc(Br)c3)CC2)c2ccccc2n1	5.95
O=C(/C=C/c1ccc(Cl)c(Cl)c1)N1CCC(CCCN2CCC(c3c[nH]c4ccccc34)CC2)CC1	6.15
COc1ccc2ncc(F)c(CCN3CCC(CNCc4cccc5c4OCO5)CC3)c2n1	6.03
c1ccc(Oc2ccc(Nc3nncc4ccccc34)cc2)cc1	6.16
CCC(C)CN1CCN(c2ccc(NC(=O)c3cccs3)cc2)CC1C (stereo not given)	6.18
COc1ccc2nccc(N3CCC(SCCNS(=O)(=O)c4ccc5c(c4)NC(=O)CS5)C3)c2n1 (stereo not given)	5.80
CC(C)NCc1ccc(-c2ccc(NC(=O)c3ccc(Cl)cc3)cc2)cc1	6.04
O=C(Nc1ccc(I)cc1)N1CCc2sccc2C1CN1CCCCC1 (stereo not given)	5.92
CN=C(Nc1c(Cl)cccc1Cl)N(C)C	6.09
CCN(CC)CCCC(C)Nc1ccnc2[nH]c3ccccc3c12 (stereo not given)	5.75
O=C(NCC1CCN(Cc2ccc(F)cc2)C1)c1cc(-c2cccc(C(F)(F)F)c2)cs1 (stereo not given)	6.02
O=C(Nc1ccsc1)Nc1cccc(-c2cccc(-c3nc4ccccc4[nH]3)c2)c1	6.92
O=S1(=O)C=C(c2ccccc2)CC1	6.70
CCOc1ccc2c(NN=Cc3cc(OC)c(OC)c(OC)c3)cc(C)nc2c1	6.21
Cc1[nH]c(C)c(-c2ccc(-c3ccccc3)nc2)c(=O)c1Br	6.18
O=C(NCC1CC1)C1CCN(C(c2ccccc2)c2nc3ccccc3s2)CC1 (stereo not given)	5.99
CC(=O)c1ccc2c(c1)[C@H](NC(=O)c1cccc(Cl)c1Cl)[C@@H](CO)C(C)(C)O2	6.16
CN1CC[C@@H](Oc2cc(CNC(=O)c3ccc(-c4ccc(Cl)cc4)s3)ccc2C(F)(F)F)C1	5.99

SMILES	pIC50
O=C(CCCCCNC(=O)c1ccc(O)c(-c2ccc(Cl)c(Cl)c2)c1)NCCc1ccc(Cl)c(Cl)c1	6.12
CCc1ccc(CN2CCC(CN(C(=O)c3ccccc3)c3ccc(Cl)cc3)CC2)cc1	6.00
Cc1cc(-c2cccc(CNC3CCCC3)c2)ccc1S(=O)(=O)NCCN1CCCC1	5.91
CC(Cc1ccc(NC(=O)c2ccc(CNCCCCc3ccccc3)cc2)cc1)NCCc1cccc(Cl)c1 (stereo not given)	6.48
COc1cc(Cc2cnc(N)nc2N)cc(OCCCCc2ccc([N+](=O)[O-])cc2)c1OC	6.00
O=C(Cc1cccnc1)N(Cc1ccc(-c2ccc(CNCc3cccnc3)cn2)cc1)C1CCN(Cc2ccccc2)CC1	6.10
Oc1ccc(CCNc2nc(NCCCOc3ccccc3-c3ccc(F)cc3)nc(N3CCNCC3)n2)cc1	5.97
COc1cc(C(=O)NC2CC(C)(C)NC(C)(C)C2)ccc1-c1cc2cc(Cl)c(Cl)cc2[nH]1	6.14
CN1CCN(CCCN(Cc2ccc(-c3cccc(CNCc4ccc5c(c4)OCO5)c3)cc2)C(=O)NCCc2ccccc2)CC1	6.08
COc1ccccc1C1CCN(C2CCC(NC(=O)c3ccc4nc(-c5ccc(C)cc5)[nH]c4c3)CC2)CC1 (stereo not given)	6.51
CN(C)c1ccc(C(c2ccc(N(C)C)cc2)c2cc([N+](=O)[O-])ccc2Cl)cc1	6.04
CC[C@H]1CN2CC[C@H]1C[C@H]2[C@@H](O)c1cc(OCCCN(C)C)nc2ccc(OC)cc12	6.89
CCc1ccc(C2CCN(CCCCNC(=O)c3ccc(NC(=O)c4ccc(Cl)cc4)cc3)CC2)c(OC(C)=O)c1	6.82
COC(=O)/C=C/c1ccc(CCC(C)NCC(O)c2cccc(Cl)c2)cc1 (stereo not given)	6.03
CC(C)c1ccc(CN2CCCCC(NC(=O)c3cc(-c4ccccc4Cl)cs3)C2)cc1 (stereo not given)	5.95
Cc1ccc(CN2CCN(Cc3cccc(NC(=O)c4ccc5ccccc5c4)c3)CC2)cc1C	5.91
CCCCC/C=C/C(=O)NC1CCC(CN2CCC(c3c[nH]c4ccccc34)CC2)CC1 (stereo not given)	6.01
CC(=NN=C(N)N)c1ccc2c(ccc3ccccc32)c1	6.08
CS(=O)(=O)Nc1ccc2[nH]cc(C3CCN(CC4CCC(NC(=O)/C=C/c5ccc(Cl)c(Cl)c5)CC4)CC3)c2n1 (stereo not given)	6.11
O=S1C(Cl)=C(c2ccc(Cl)cc2)c2ccc(Cl)cc21 (stereo not given)	6.00
COc1c(C2CCN(CCCCNC(=O)c3cc(-c4ccc(Cl)cc4)[nH]c3C)CC2)ccc2c1CCCC2	6.01
CC(=O)Nc1ccc(C(=O)NC2CCN(c3ccnc4cc(Cl)ccc34)CC2)cc1	6.44
N#Cc1ccc2c(c1)CCN(CCC1CCC(NC(=O)c3cc4cccc(Cl)c4[nH]3)CC1)CC2 (stereo not given)	6.24
